According to patent US20250195537A1, “PSYCHEDELIC DRUG TREATMENT OF NEUROPSYCHIATRIC DISORDERS AND CEREBRAL PALSY” (priority 2021, published 2025):

Assays:
[1] = Case reports: patients with depression given ketamine with or without an anxiolytic; assay type: in vivo, human
[2] = Case report: patient with muscle spasm associated with cerebral palsy given intramuscular ketamine; assay type: in vivo, human; details: intramuscular ketamine 0.2-1.2 mg/kg
[3] = Case report: patient with depression and suicidal ideation given ketamine with or without intranasal oxytocin; assay type: in vivo, human
[4] = cited from earlier work
[5] = ketamine infusions, benzodiazepine users, Albott et al., 2017

## Cc1nnc2n1-c1ccc(Cl)cc1C(c1ccccc1)=NC2 [alprazolam]
[1]; same patient, 0.5 mg alprazolam before the same dose of ketamine
  improvement in depression: significant improvement in depression

## CNC1(c2ccccc2Cl)CCCCC1=O (centres unmarked) [ketamine]
[2]
  muscle spasm after the treatment: reduction in their muscle spasm
[1]; patient with depression, ketamine alone
  therapeutic benefit: did not benefit therapeutically
[1]; same patient, ketamine without lorazepam, compared to times with lorazepam
  antidepressant effect: reduced antidepressant effect
[3]; ketamine alone, several times, intramuscular 0.25-1.0 mg/kg
  improvement in depression or suicidal ideation: did not experience improvement
[4]; concomitant use of benzodiazepines, Andrashko et al., 2020
  antidepressant effect of ketamine: dampened the antidepressant effect
[4]; [5]
  time to antidepressant response: significantly longer
  time to depression relapse: significantly shorter
[4]; one patient, after their benzodiazepine was withdrawn, Ford et al. (2015)
  antidepressant response to ketamine infusions: more robust

## O=C1Nc2ccc(Cl)cc2C(c2ccccc2Cl)=NC1O (centres unmarked) [lorazepam]
[1]; patient with depression, 1 mg lorazepam prior to ketamine, several treatments
  antidepressant effect: experienced an antidepressant effect

## CC[C@H](C)[C@@H]1NC(=O)[C@H](Cc2ccc(O)cc2)NC(=O)[C@@H](N)CSSC[C@@H](C(=O)N2CCC[C@H]2C(=O)N[C@@H](CC(C)C)C(=O)NCC(N)=O)NC(=O)[C@H](CC(N)=O)NC(=O)[C@H](CCC(N)=O)NC1=O [oxytocin]
[3]; same patient, oxytocin 40 IU intranasally 30 minutes before ketamine in same dose range
  severity of depression and suicidal ideation: reduced severity of depression and suicidal ideation
